Laboratory results: patent US6818621B2, “Osteopontin-derived chemotactic and inhibitory agents and uses therefor” (Children's Medical Center Corporation, priority 1999, dated 2004)
Marks after values point to notes of the source that are not given here. Blank lines part the entries; values can stand above or below the substance they belong to. Where no end group is shown, it is not given here.

How the values were obtained:
MDA-MB-231 cells [1] = test: Apoptosis by TUNEL (In situ Cell Death Detection Kit); type: cell-based, human; conditions: 100 nM, 12 hours; for increase in apoptosis as compared to OPN: TUNEL
Procedure: (§1) One million MDA-MB-231 cells were incubated with 100 nM of the OPN, LVVDPK (SEQ ID NO:8), Ac-MLDP (SEQ ID NO:23) or Ac-HKDKMLDP (SEQ ID NO:24) in DME containing 10% FBS in a humidified atmosphere of 5% CO2 at […]. After 12 hours, Caspase 8 and the % of apoptotic cells were determined. Caspase was determined by a fluorescent assay using Chemicon's FLICE/Caspase-8 Fluorometric Protease Assay Kit as described by the manufacturers. Apoptosis was determined using TUNEL using the “In situ Cell Death Detection Kit” (Boehringer-Mannheim, Germany).

Caspase 8 = test: FLICE/Caspase-8 Fluorometric Protease Assay; type: cell-based, human; conditions: 100 nM, 12 hours, MDA-MB-231 cells
Procedure: as §1

[2] = system: MDA-MB-231 cells (CD44+ human breast adenocarcinoma cells); test: Chemotactic chamber (Boyden) assay, migration through polycarbonate filters; type: cell-based; conditions: for MI buffer: cells migrating in response to peptide divided by cells migrating in response to buffer; for mean number of migrating cells per six random high powered fields: Table 2
Procedure: Each peak was then tested for mediation of chemotaxis or for its ability to inhibit OPN mediated chemotaxis using the chemotactic assay as follows (see e.g., Weber et al. (1996) Science 271:509-512). Briefly, uncoated polycarbonated filters (pore size […] ) were used to separate the upper and lower chambers of chemotactic wells. 1×10^3 MDA-MB-231 cells (CD44^+human breast adenocarcinoma cells) were added to the upper chamber and incubated in the presence or absence of the indicated 50 pmols peptide. After 4 hours, the filters were removed, fixed in methanol arid stained with hematoxylin and eosin. Cells which have responded to the peptide, migrate to various areas of the lower surface and can be counted microscopically. Each data point is reported as the mean number of migrating cells per random high power field.
Peptide 51 was identified as being chemotactic. The peptide was sequenced using a gas-phase sequenator and determined to have the sequence LVLDPK (SEQ ID NO:1). To confirm that chemotaxis was due to this peptide, a 16 amino acid peptide spanning the chemotactic sequence in OPN was synthesized and tested for its chemotactic properties. The resulting peptide, SP64 has the sequence KFHSHKDKLVLDPKSK (SEQ ID NO:2) and containing the chemotactic sequence from residues 9-14. 2×10^4 MDA-MB-231 cells were assayed for chemotactic response to the indicated peptides as described above. Each data point is reported as the mean number of migrating cells per six random high powered fields ± standard error of the mean. Each experiment was repeated four times.
To test the amino acid specificity for chemotactic response several substitutions were created in the chemotactic sequence and the new peptides tested for their ability to induce chemotaxis. Data are expressed as migratory index (cells migrating in response to peptide/cells migration in response to LVLDPK, SEQ ID NO:1).
(§2) To evaluate the potential of peptide analogues to inhibit OPN induced chemotaxis, 100 nmoles of peptide was added to the lower compartment and the response of these cells to OPN was determined as described. MI(buffer) was calculated by dividing the number of cells migrating in response to peptide by the number of cells migrating in response to buffer. MI(inhibitory) equals the number of cells migrating towards OPN in the presence of buffer divided by the number migrating towards OPN in the presence of peptide.

MDA-MB-231 cells [3] = test: Inhibition of OPN induced chemotaxis in the chemotactic chamber assay; type: cell-based, human; conditions: for MI inhibitory: Table 4, 100 nmoles of peptide, cells migrating towards OPN in presence of buffer divided by number migrating towards OPN in presence of peptide
Procedure: as §2

[4] = system: Peritoneal macrophages, fibroblasts or osteoblasts; test: Apoptosis of non-tumor cells treated with PepM; type: cell-based
breast tumor cells = test: Nitric oxide production, nitrate in culture supernatants (Griess reagents); type: cell-based; conditions: 12 hours after incubation
Procedure: The production of nitric oxide (NO) by the breast tumor cells was assessed 12 hours after incubation in the presence of pepL by measuring the accumulation of nitrate in culture supernatants. Griess reagents were used as described by Hwang et al. (1993).

[5] = system: cells recruited into the peritoneum; test: In vivo chemotaxis after injection of peptide into the peritoneal cavity, lavage and flow cytometry; parameters: species or system C57 black mice; conditions: coinjected with the chemotactic agent
[6] = system: cells recruited into the peritoneum; test: as above; parameters: species or system C57 black mice; conditions: 25 nmols i.p., 6 hours, normalized to PBS-injected mouse, average of 6 mice
Procedure: Since the peptide LVLDPK (SEQ ID NO:1) was chemotactic to tumor cells and macrophages in vitro, we tested whether the peptide was chemotactic in vivo. 25 nmols of the peptide were injected into the peritoneal cavity of C57 black mice. After six hours the cells recruited into the peritoneum were recovered by lavage and identified by flow cytometry. Titration of soluble peptides into the peritoneum induces a cellular infiltrate in a dose dependent manner. The induction ratio is the number of cells of a particular lineage recovered from the peritoneum of a peptide-injected mouse (e.g., 6 hours after injection) normalized for each experiment to the number of cells of the same lineage recovered from the peritoneum of a PBS-injected mouse. Cell numbers for PBS-injected mice ranged from […] to 646,000 cells total; 182,300 to 325,000 CD44^+ cells; 224,000 to 496,000 […] cells; 31,300 to 76,000 B220^+ cells; 18,100 to 21,100 CD3^+ cells), representing the induction of macrophages (Mac-1^+), B cells (B220^+), and T cells (CD3^+). Values represent an average of 6 mice.

peritoneal exudate cells = test: In vivo cellular migration after intraperitoneal injection of osteopontin, peritoneal exudate flow cytometry; parameters: species or system Mice
Procedure: Mice were injected intraperitoneally with varying dosages of K7 osteosarcoma-derived osteopontin. All injection volumes were 200 μl. Injections of vehicle alone (PBS) served as negative controls and vehicle plus 20 μg lipopolysaccharide (LPS) injections served as positive controls for elicitation of peritoneal exudates.
Mice were sacrificed by CO2-asphyxiation at varying times following injection. Immediately after sacrifice, peritoneal exudate was recovered by intraperitoneal injection and recovery of 10 mL PBS. The lavage procedure was performed twice on each mouse. Following this, red blood cells were lysed by hypotonic lysis with ACK lysis buffer (0.15 M NH4Cl, 1.0 mM KHCO3, 0.1 mM Na2EDTA, pH 7.4) for 5 minutes at room temperature, and the preparation was washed in DMEM, 5% FBS. Cells were resuspended in DMEM, 5% FBS for fluorescent antibody staining.
Each sample of cells to be analyzed for specific surface markers was suspended in DMEM, 5% FBS at a concentration of 0.2 to 1 million cells in 50 μl. Fluorescence-labeled antibodies were added at 1 μg/1×10^6 cells, and incubated with the cells for 30 minutes at 4° C. Samples were washed twice with 200 μl of PBS following antibody staining and fixed with 500 μl of 2% paraformaldehyde in PBS. Peritoneal exudate cells were analyzed by dual-color flow cytometry for expression of CD44 (PE), CD 11 b (Mac-1, FITC, macrophage marker), B220 (FITC, B-cell marker), and CD3 (FITC, T-cell marker). All antibodies were purchased from PharMingen and flow cytometric analysis was done using a Coulter EPICS flow cytometer. Controls for non-specific binding and single color controls were included.
To further characterize the effects of osteopontin on in vivo cellular migration, a time course experiment was performed using an osteopontin dosage that elicited peak levels of infiltration. The total cellular response to osteopontin administration peaked sharply at 4 to 6 hours. This is likely to be due to a high rate of clearance from the peritoneal cavity.

macrophage = test: Inhibition of macrophage recruitment by osteopontin, C5a and fibronectin; conditions: C5a and by fibrorectin

Substance: Acetyl-MLDP (Ac-MLDP) [pepL]
apoptosis (in words) (MDA-MB-231 cells [1]): activation of apoptosis | increase in apoptosis as compared to OPN (MDA-MB-231 cells [1]): 80% | increase In Caspase 8 activity (Caspase 8): ~65% | MI buffer ([2]; Table 4): 1 | MI inhibitory (MDA-MB-231 cells [3]): 2 | NO production (breast tumor cells): increased NO production | effect on chemotactic response to OPN of LVLDPK in vivo [5]: totally abolished the chemotactic response

Substance: OPN: osteopontin protein; bone OPN in vitro, K7 osteosarcoma-derived osteopontin in Example 3
mean number of migrating cells per six random high powered fields ([2]; labelled agent in lower chamber, Ab64 in upper chamber): 36 cells per six random high powered fields | mean number of migrating cells per six random high powered fields ([2]; labelled agent in lower chamber, OPN in upper chamber): 16 cells per six random high powered fields | mean number of migrating cells per six random high powered fields ([2]; labelled agent in lower chamber, PBS in upper chamber, 2×10^4 cells): 214 cells per six random high powered fields | mean number of migrating cells per six random high powered fields ([2]; labelled agent in lower chamber, SP64 in upper chamber): 187 cells per six random high powered fields | mean number of migrating cells per six random high powered fields ([2]; labelled agent in lower chamber, pep 51 in upper chamber): 44 cells per six random high powered fields | mean number of migrating cells per six random high powered fields ([2]; labelled agent in upper chamber, PBS in lower chamber): 23 cells per six random high powered fields | chemotactic response of MDA-MB231 (in words) ([2]; p<0.01, 200 ng of bone OPN): stimulated the chemotactic response | induction ratio, Total [6]: 11.3 | induction ratio, Total CD44 [6]: 9.6* | induction ratio, B-lymphocytes ([6]; B220+): 1.2 | induction ratio, T-lymphocytes ([6]; CD3+): 1 | induction ratio, Monocytes ([6]; Mac-1+): 10.4* | number of CD3+ and B220+ cells (peritoneal exudate cells; 6 hours after injection): only marginally elevated | number of Mac-1+ cells in the infiltrate (peritoneal exudate cells; 6 hours after injection, over basal levels): increased fivefold over basal levels | peritoneal cells recovered (peritoneal exudate cells; OPN alone): 1.16 million cells | number of CD44+ Mac1+ cells (peritoneal exudate cells; at a dose around 7 μg): nearly sixfold reduction | dose of peak response of the cellular infiltrate (peritoneal exudate cells; intraperitoneal, 6 hours after injection): around 13 μg | cellular infiltrate (in words) (peritoneal exudate cells; titration into the peritoneum, 6 hours after injection): dose dependent increase

Substance: VLEP (OTHER INFORMATION: Description of Artificial Sequence:Synthetic Peptide) [pepJ′]
Migratory Index ([2]; Table 3, cells migrating in response to peptide/cells migration in response to LVLDPK): 0.1 | inhibition of macrophage recruitment (macrophage): inhibits macrophage recruitment | inhibition of chemotaxis by peptide (in words) (MDA-MB-231 cells [3]; migratory index against peptide 51): inhibitory for chemotaxis

More lines, main results first:

increase In Caspase 8 activity (Caspase 8): ~80%
Substance: Acetyl-HKDKMLDP (Ac-HKDKMLDP) [pepM]
apoptosis (in words) (MDA-MB-231 cells [1]): activation of apoptosis | increase in apoptosis as compared to OPN (MDA-MB-231 cells [1]): ~120% | MI buffer ([2]; Table 4): 0.8 | MI inhibitory (MDA-MB-231 cells [3]): 2 | apoptosis of non-tumor cells [4]: did not undergo apoptosis

Caspase 8 activity (in words) (Caspase 8): virtually undetectable
Substance: LVVDPK (OTHER INFORMATION: Description of Artificial Sequence:Synthetic Peptide) [pepA′]
apoptosis (in words) (MDA-MB-231 cells [1]): virtually undetectable | MI buffer ([2]; Table 4): 9 | MI ([2]; Table 4, migratory index): 1 | MI inhibitory (MDA-MB-231 cells [3]): 8
